Earlier results as cited in patent US20260271921A1, “DILUTION-INDUCED RELEASE COMPOSITIONS AND METHODS OF USE THEREOF” (priority 2025, published 2026).

CCN(CC)c1ccc2nc3c4ccccc4c(=O)cc-3oc2c1 [Nile Red]
logP: 3.65
